Assay results taken from paper PMC9585939, “Unveiling a family of spiro-β-lactams with anti-HIV and antiplasmodial activity via phosphine-catalyzed [3+2] annulation of 6-alkylidene-penicillanates and allenoates” (Frontiers in Chemistry, 2022).
Entries after “also recorded” stand apart in the source; their conditions may differ.

Tests used:
HIV-1 SG3.1 = assay: microbe, parasite or virus in culture; settings: for anti-HIV activity (in words) / Therapeutic index (CC50/IC50): HIV-1; for inhibition at 25 µg/mL / IC50 / IC90: Human immunodeficiency virus 1, TZM-bl; for inhibition at 25 µg/mL: read-out: MPI (%) 25 μg/mL; for Therapeutic index (CC50/IC50): CC50 in TZM-bl cells; for IC50 / IC90: 48 h; for IC50: read-out: IC50 HIV-1, TZM-bl cells, 48 h; for IC90: read-out: IC90 HIV-1
Source text: The HIV-1 SG3.1 is a reference subtype B strain that uses the CXCR4 coreceptor. It was obtained by transfection of HEK293T cells with pSG3.1 plasmid using jetPRIME transfection reagent (Polyplus-transfection SA, Illkirch, France), according to the instructions of the manufacturer.
Briefly, TZM-bl cells were infected with 200 TCID50 of HIV-1 or HIV-2 in the presence of serial-fold dilutions of the compounds in the growth medium, supplemented with diethylaminoethyl-dextran (DEAE-dextran). After 48 h of infection, luciferase expression was quantified with Pierce Firefly Luc One-Step Glow Assay Kit (ThermoFisher Scientific, Rockford, United States), according to the instructions of the manufacturer. For each compound dilution, the assay was set up in triplicate wells. Virus controls, cell controls, and inhibitors controls (drugs with a known action against each virus) were employed.

[1] = Cellular viability assay (alamarBlue) in TZM-bl cells; format: cell-based; settings: human, 50% cytotoxic concentration
Description: Before the antiviral activity screening, all spirocyclopentene-β-lactams were assayed for their in vitro cytotoxic activity (CC50) in TZM-bl cells (Table 4).
TZM-bl cells (AIDS Research and Reference Reagent Program, National Institutes of Health, United States) were cultured in complete growth medium consisting of Dulbecco’s Minimal Essential Medium (DMEM) supplemented with 10% fetal bovine serum (FBS), 100 U/ml of penicillin–streptomycin (Gibco/Invitrogen, United States), 1 mM of sodium pyruvate (Gibco/Invitrogen, United States), 2 mM of L-glutamine (Gibco/Invitrogen, United States), and 1 mM of non-essential amino acids (Gibco/Invitrogen, United States). Cell cultures were maintained at 37°C in 5% CO2.
The in vitro cytotoxicity of test compounds was evaluated in TZM-bl cells using alamarBlue cell viability reagent (Life Technologies, United States), according to the instructions of the manufacturer. The cells were cultured in the presence and absence of serial-fold dilutions of the test compounds. Each dilution of each compound was performed in triplicate wells. Medium controls (only growth medium), cell controls (cells without test compound), and cytotoxicity controls (a compound that kills cells) were employed in each assay.

| SMILES | melting point | anti-HIV activity (in words) (HIV-1 SG3.1) | inhibition at 25 µg/mL (HIV-1 SG3.1) [%] | CC50 [1] [µM] | Therapeutic index (CC50/IC50) (HIV-1 SG3.1) | IC50 (HIV-1 SG3.1) [µM] | IC90 (HIV-1 SG3.1) [µM] |
| --- | --- | --- | --- | --- | --- | --- | --- |
| CC1(C)SC2N(C(=O)C23CC=C(C(=O)Oc2ccccc2)C3C(=O)c2ccccc2)C1C(=O)OC(c1ccccc1)c1ccccc1 (stereo not drawn) [Compound 9a, (1′R,2′R)-Benzhydryl spiro[(2-benzoyl-3-phenoxycarbonylcyclopent-3-ene)-1′,6-penicillanate]] | > 137 °C (dec.) | lack of antiviral activity | 0 | 215 |  |  |  |
| CC(C)(C)c1ccc(OC(=O)C2=CCC3(C(=O)N4C(C(=O)OC(c5ccccc5)c5ccccc5)C(C)(C)SC43)C2C(=O)c2ccccc2)cc1 (stereo not shown) [Compound 9b, (1’R,2’R)-Benzhydryl spiro[(2-benzoyl-3-(4-tert-butylphenoxycarbonyl)cyclopent-3-ene)-1’,6-penicillanate]] | 206.7 to 208.9 °C |  | 0 | 54.7 |  |  |  |
| COc1cccc(OC(=O)C2=CCC3(C(=O)N4C(C(=O)OC(c5ccccc5)c5ccccc5)C(C)(C)SC43)C2C(=O)c2ccccc2)c1 (stereo not shown) [Compound 9c, (1’R,2’R)-Benzhydryl spiro[(2-benzoyl-3-(3-methoxyphenoxycarbonyl)cyclopent-3-ene)-1’,6-penicillanate]] | 67.8 to 69.7 °C |  | 0 | 58.1 |  |  |  |
| CC1(C)SC2N(C(=O)C23CC=C(C(=O)Oc2ccc4ccccc4c2)C3C(=O)c2ccccc2)C1C(=O)OC(c1ccccc1)c1ccccc1 (stereo not shown) [Compound 9d, (1’R,2’R)-Benzhydryl spiro[(2-benzoyl-3-(2-naphthoxycarbonyl)cyclopent-3-ene)-1’,6-penicillanate]] |  |  | 54 | 38 |  |  |  |
| CCCCCOC(=O)C1=CCC2(C(=O)N3C(C(=O)OC(c4ccccc4)c4ccccc4)C(C)(C)SC32)C1C(=O)c1ccccc1 (stereo not shown) [Compound 9e, (1’R,2’R)-Benzhydryl spiro[(2-benzoyl-3-pentoxycarbonylcyclopent-3-ene)-1’,6-penicillanate]] |  |  | 44 | 60.3 |  |  |  |
| CC(C)CCOC(=O)C1=CCC2(C(=O)N3C(C(=O)OC(c4ccccc4)c4ccccc4)C(C)(C)SC32)C1C(=O)c1ccccc1 (stereo not shown) [Compound 9f, (1’R,2’R)-Benzhydryl spiro[(2-benzoyl-3-isopentoxycarbonylcyclopent-3-ene)-1’,6-penicillanate]] |  |  | 21 | 53.4 |  |  |  |
| CC1(C)SC2N(C(=O)C23CC=C(C(=O)OC(c2ccccc2)c2ccccc2)C3C(=O)c2ccccc2)C1C(=O)OC(c1ccccc1)c1ccccc1 (stereo not shown) [Compound 9g, (1’R,2’R)-Benzhydryl spiro[(2-benzoyl-3-benzhydryloxycarbonylcyclopent-3-ene)-1’,6-penicillanate]] | 83.4 to 85.2 °C |  | 0 | 45.3 |  |  |  |
| CC1(C)SC2N(C(=O)C23CC=C(C(=O)OCc2ccc([N+](=O)[O-])cc2)C3C(=O)c2ccccc2)C1C(=O)OC(c1ccccc1)c1ccccc1 (stereo not shown) [Compound 9h, (1’R,2’R)-Benzhydryl spiro[(2-benzoyl-3-(4-nitrobenzyloxycarbonyl)cyclopent-3-ene)-1’,6-penicillanate]] | 81.2 to 83.1 °C | inactive; also recorded: total loss of antiviral activity | 0 | 56 |  |  |  |
| Cc1ccc(COC(=O)C2=CCC3(C(=O)N4C(C(=O)OC(c5ccccc5)c5ccccc5)C(C)(C)SC43)C2C(=O)c2ccccc2)cc1 (stereo not shown) [Compound 9j, (1’R,2’R)-Benzhydryl spiro[(2-benzoyl-3-(4-methylbenzyloxycarbonyl)cyclopent-3-ene)-1’,6-penicillanate]] | 59 to 60.8 °C |  | 93 | 60 | 674.49 | 0.089 | 0.209 |
| CC1(C)SC2N(C(=O)C23CC=C(C(=O)OCc2ccc(Cl)cc2)C3C(=O)c2ccccc2)C1C(=O)OC(c1ccccc1)c1ccccc1 (stereo not shown) [Compound 9k, (1’R,2’R)-Benzhydryl spiro[(2-benzoyl-3-(4-chlorobenzyloxycarbonyl)cyclopent-3-ene)-1’,6-penicillanate]] | 49.8 to 51.5 °C |  | 84 | 54.1 | 148.11 | 0.366 |  |
| CC1(C)SC2N(C(=O)C23CC=C(C(=O)OCc2ccc(F)cc2)C3C(=O)c2ccccc2)C1C(=O)OC(c1ccccc1)c1ccccc1 (stereo not shown) [Compound 9l, (1’R,2’R)-Benzhydryl spiro[(2-benzoyl-3-(4-fluorobenzyloxycarbonyl)cyclopent-3-ene)-1’,6-penicillanate]] | 67.2 to 69.3 °C |  | 100 | 55.8 | 502.97 | 0.111 | 0.221 |
| C#CCOC(=O)C1=CCC2(C(=O)N3C(C(=O)OC(c4ccccc4)c4ccccc4)C(C)(C)SC32)C1C(=O)c1ccccc1 (stereo not shown) [Compound 9m, (1’R,2’R)-Benzhydryl spiro[(2-benzoyl-3-(prop-2-yn-1-yloxycarbonyl)cyclopent-3-ene)-1’,6-penicillanate]] | 62.2 to 64.8 °C |  | 94 | 60.1 | 296.11 | 0.203 | 0.437 |
| CC(COC(=O)C1=CCC2(C(=O)N3C(C(=O)OC(c4ccccc4)c4ccccc4)C(C)(C)SC32)C1C(=O)c1ccccc1)c1ccccc1 (stereo not shown) [Compound 9o, (1’R,2’R)-Benzhydryl spiro[(2-benzoyl-3-(1-phenylpropan-2-yloxycarbonyl)cyclopent-3-ene)-1’,6-penicillanate]] |  |  | 0 | 44.7 |  |  |  |
| CC1(C)SC2N(C(=O)C23CC=C(C(=O)OCc2ccccc2)C3C(=O)c2ccc(Cl)cc2)C1C(=O)OC(c1ccccc1)c1ccccc1 (stereo not shown) [Compound 12b, (1’R,2’R)-Benzhydryl spiro[(2-(4-chlorobenzoyl)-3-benzyloxycarbonylcyclopent-3-ene)-1’,6-penicillanate]] | 145.2 to 146.5 °C |  | 92 | 56 | 888.73 | 0.063 | 0.104 |
| CC1(C)SC2N(C(=O)C23CC=C(C(=O)OCc2ccccc2)C3C(=O)c2ccc([N+](=O)[O-])cc2)C1C(=O)OC(c1ccccc1)c1ccccc1 (stereo not shown) [Compound 12d, (1’R,2’R)-Benzhydryl spiro[(2-(4-nitrobenzoyl)-3-benzyloxycarbonylcyclopent-3-ene)-1’,6-penicillanate]] | 122 to 123.7 °C |  | 80 | 53 | 297.75 | 0.178 | 0.413 |
| CC1(C)SC2N(C(=O)C23CC=C(C(=O)OCc2ccccc2)C3C(=O)c2ccc(C(F)(F)F)cc2)C1C(=O)OC(c1ccccc1)c1ccccc1 (stereo not shown) [Compound 12e, (1’R,2’R)-Benzhydryl spiro[(2-(4-trifluoromethylbenzoyl)-3-benzyloxycarbonylcyclopent-3-ene)-1’,6-penicillanate]] | 134.1 to 135.5 °C |  | 76 | 64.4 | 49.39 | 1.3 | 1.5 |
| CC1(C)SC2N(C(=O)C23CC=C(C(=O)OCc2ccccc2)C3C(=O)c2cc(F)cc(F)c2)C1C(=O)OC(c1ccccc1)c1ccccc1 (stereo not shown) [Compound 12f, (1’R,2’R)-Benzhydryl spiro[(2-(3,5-difluorobenzoyl)-3-benzyloxycarbonylcyclopent-3-ene)-1’,6-penicillanate]] | 69.5 to 71.5 °C |  | 88 | 70.1 | 531.34 | 0.132 | 0.585 |
| CC1(C)SC2N(C(=O)C23CC=C(C(=O)OCc2ccccc2)C3C(=O)c2ccc3ccccc3c2)C1C(=O)OC(c1ccccc1)c1ccccc1 (stereo not shown) [Compound 12h, (1’R,2’R)-Benzhydryl spiro[(2-naphthoyl-3-benzyloxycarbonylcyclopent-3-ene)-1’,6-penicillanate]] | 81.5 to 83.5 °C |  | 0 | 73.6 |  |  |  |
| Cc1ccc(COC(=O)C2=CCC3(C(=O)N4C(C(=O)OC(c5ccccc5)c5ccccc5)C(C)(C)SC43)C2C(=O)c2ccc(F)cc2)cc1 (stereo not shown) [Compound 14b, (1’R,2’R)-Benzhydryl spiro[(2-(4-fluorobenzoyl)-3-(4-methylbenzyloxycarbonyl)cyclopent-3-ene)-1’,6-penicillanate]] |  |  | 95 | 78.3 |  | 0.146 | 0.338 |
